Patent US7883893B2, “Method to assay test substances” (priority 2005, dated 2011)
“And” between values parts separate entries of the source, which are not always exact repeats. Equal entries are not always repeated. “Also recorded” adds a separate entry of the source. One block for each compound: values may come before it.

Columns and labels:
Assay type in all cases: cell-based
Kir2.1Y channel [1] = test: Rb+ efflux of 293 cells stably expressing Kir2.1Y incubated with BFA without MTSET treatment
Experimental: (§1) Rb^+ Flux Assay and Atomic Absorption Spectrometry. All assays shown were performed at room temperature in poly(L-lysine) (0.1 mg/ml)-coated 24-well microplates. For experiments with transiently transfected cells, ˜1×10^5 cells were seeded in each well the day before transfection (0.3 μg of DNA per well). Sodium butyrate at 5 mM was added 6-8 h after transfection. The assays were performed 24 h after transfection. HEK 293 cells stably expressing either Kir2.1 or Kir2.1Y channel were seeded with a cell density of 2×10^5 cells per well. To enhance expression, 5 mM sodium butyrate was added 4-6 h after seeding. Cells then were cultured continuously for 16-20 h before experiments.
Rb^+ Efflux. To load Rb^+ into cells, we incubated cells in 0.5 ml per well 50/50 DMEM/F12 complete growth medium containing ˜5 mM RbCl at 37° C. for 3-4 h. Cells then were washed twice quickly with 1 ml per well non-Rb^+ medium to remove residual Rb^+. […] The Rb^+ concentration in each sample was analyzed using the ICR 8000. Rb^+ efflux (%) was determined as: 100%×[Rb^+]sup/([Rb^+]sup+[Rb^+]lysate) where [Rb^+]sup represents the Rb^+ concentration in the supernatant, and [Rb^+]lysate represents the Rb^+ concentration in the cell lysate. […]

Kir2.1Y channel [2] = test: FRAC: recovery of Kir2.1Y channel activity (Rb+ efflux) after MTSET chemobleaching
Text: To assay the transit time of nacently surfaced receptor, we first modify, inhibit, or change (pulse) accessible functional molecules on the cell surface and then monitor the recovery of the original function/activity at subsequent time points (chase). One thus may determine the time required to populate the cell surface with newly inserted cell surface molecules (FIG. 1). Designing versions of this assay involves consideration of at least four factors. (i) A functional assay preferably monitors activity predominantly or only from molecules on the cell surface. […] (iii) The activity detection should be relatively short compared with the time required to repopulate the cell surface with functional molecules. (iv) The pulse should be rapid, quantitative, and optionally irreversible, thereby allowing detection of the activity contributed only by the newly arrived (or newly activated) proteins on the cell surface. These are considerations only, rather than mandatory properties. Deviation from one of these considerations may involve compensation by another. Furthermore, one of ordinary skill in the art will appreciate that treatment of cell surfaces can be restricted to a desirable area, such as the apical surface of epithelial cells. Thus, spatially restricted populations of cell surface receptors can be affected.
Rb^+ Flux Assay and Atomic Absorption Spectrometry. All assays shown were performed at room temperature in poly(L-lysine) (0.1 mg/ml)-coated 24-well microplates. For experiments with transiently transfected cells, ˜1×10^5 cells were seeded in each well the day before transfection (0.3 μg of DNA per well). Sodium butyrate at 5 mM was added 6-8 h after transfection. The assays were performed 24 h after transfection. […]
Rb^+ Efflux. […] The Rb^+ concentration in each sample was analyzed using the ICR 8000. Rb^+ efflux (%) was determined as: 100%×[Rb^+]sup/([Rb^+]sup+[Rb^+]lysate) where [Rb^+]sup represents the Rb^+ concentration in the supernatant, and [Rb^+]lysate represents the Rb^+ concentration in the cell lysate. […]

Kir2.1 = test: Rb+ efflux of 293 cells stably expressing Kir2.1 incubated with BFA without MTSET treatment; details: BFA 3 h, absence of MTSET treatment (data not shown)
Experimental: as §1
Rb^+ Efflux. […] The Rb^+ concentration in each sample was analyzed using the ICR 8000. Rb^+ efflux (%) was determined as: 100%×[Rb^+]sup/([Rb^+]sup+[Rb^+]lysate) where [Rb^+]sup represents the Rb^+ concentration in the supernatant, and [Rb^+]lysate represents the Rb^+ concentration in the cell lysate.
In the case of Kir2.1, we observed reproducible ˜30% reduction over the same period of incubation (data not shown). […] For Kir2.1Y, the combination of quantitative elimination of surface channel activity by MTSET, the >90% activity recovery, and little detectable reduction of Rb^+ efflux in the presence of BFA then would predict a 2-fold increase of protein signal on the cell surface. […]

Kir2.1Y channel [3] = test: Rb+ influx assay of HEK 293 cells transiently transfected with Kir2.1Y, with MTSET treatment; details: MTSET treatment before the assay (2.5 mM per FIG. 2 legend)
Experimental: as §1
Rb^+ Influx. To perform the assay, cells first were incubated in 50/50 DMEM/F12 complete growth medium containing 5 mM RbCl for the indicated time periods before the medium was quickly aspirated. Cells then were washed twice quickly with non-Rb^+ DMEM/F12 medium and lysed with 0.5 ml of 0.1% SDS per well. The Rb^+ concentration in cell lysates was measured by atomic absorption spectrophotometry (ICR8000, Aurora Biomed, Vancouver), according to the manufacturer's user manual.
(§2) To monitor the specificity of the Rb^+ assay and the effectiveness of Rb^+ detection by atomic absorption spectrometry (19), we measured the Rb^+ uptake signals of transiently transfected cells at different times of incubation. […]

wild-type Kir2.1 = biological target: T1, wild-type Kir2.1 (Homo sapiens, UniProt P63252); test: Rb+ flux assay of wild-type Kir2.1 with MTSET
T1 sequence (P63252 1-427): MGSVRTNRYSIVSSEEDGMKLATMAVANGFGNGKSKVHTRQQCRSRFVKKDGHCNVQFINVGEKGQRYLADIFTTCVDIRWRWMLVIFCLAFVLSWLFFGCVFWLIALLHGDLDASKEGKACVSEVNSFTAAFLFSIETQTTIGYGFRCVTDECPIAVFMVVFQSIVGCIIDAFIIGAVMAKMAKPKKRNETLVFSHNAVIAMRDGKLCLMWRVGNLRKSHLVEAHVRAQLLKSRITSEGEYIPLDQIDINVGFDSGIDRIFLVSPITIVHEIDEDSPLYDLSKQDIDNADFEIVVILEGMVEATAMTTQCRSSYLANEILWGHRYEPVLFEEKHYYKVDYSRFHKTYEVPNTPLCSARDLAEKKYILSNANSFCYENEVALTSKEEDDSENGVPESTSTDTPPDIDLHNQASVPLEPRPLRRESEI
Text: (§3) Earlier reports using electrophysiological recording have shown that membrane-nonpermeable MTS reagents such as MTSET reduce or abolish the current of Kir2.1 by covalently modifying the reduced form of cysteine residues already present in the channel protein or introduced by site-directed mutagenesis (18). It is not known whether or to what extent the modifications by MTS reagents will affect channel activity measured by a Rb^+ flux assay. We tested several cysteine positions of Kir2.1 mutants using MTSET, a positively charged cysteinyl sulfhydryl-specific reagent.

Kir2.1Y channel [4] = test: Rb+ efflux assay of 293 cells stably expressing Kir2.1Y, with MTSET treatment; details: stable Kir2.1Y line, FIG. 2c
Experimental: as §1
Rb^+ Efflux. To load Rb^+ into cells, we incubated cells in 0.5 ml per well 50/50 DMEM/F12 complete growth medium containing ˜5 mM RbCl at 37° C. for 3-4 h. […] The Rb^+ concentration in each sample was analyzed using the ICR 8000. Rb^+ efflux (%) was determined as: 100%×[Rb^+]sup/([Rb^+]sup+[Rb^+]lysate) where [Rb^+]sup represents the Rb^+ concentration in the supernatant, and [Rb^+]lysate represents the Rb^+ concentration in the cell lysate.
as §2

Kir2.1 mutation of C149 = test: Electrophysiological recording and Rb+ assay of Kir2.1 C149 mutant with MTSET; details: electrophysiological recording and Rb+ assay (data not shown)
Text: as §3

SMILES: C[C@H]1CCC/C=C/[C@@H]2C[C@H](O)C[C@H]2[C@H](O)/C=C/C(=O)O1 [BFA, Brefeldin A]
sensitivity of surface channel activity to BFA concentrations (Kir2.1Y channel [1]; absence of MTSET treatment, 3-h incubation, FIG. 5b): no sensitivity | effect on activity of channels already on the cell surface (Rb+ efflux) (Kir2.1Y channel [1]; without MTSET treatment, 3-h incubation with BFA): did not affect the activity; also recorded: did not result in a detectable reduction | activity recovery (Kir2.1Y channel [2]; 1 μM BFA at 37° C. for 3 h, added immediately after 5-min MTSET treatment (FIG. 5a)): < 20% and 20% | BFA concentration at which the effect reaches a plateau (Kir2.1Y channel [2]; recovery at 3 h, 37° C., FIG. 5b): > 0.6 µM | reduction of Rb+ efflux activity (Kir2.1): ~30%

effect of MTSET on channel activity (wild-type Kir2.1): quantitatively nullified
SMILES: C[N+](C)(C)CCSS(C)(=O)=O.[Br-] [MTSET, [2-(trimethylammonium)ethyl]methanethiosulfonate bromide]
specific Rb+ uptake signal abolished (Kir2.1Y channel [3]): > 80% | Rb+ efflux signal after MTSET treatment (Kir2.1Y channel [4]): only background signals were observed | sensitivity to MTSET (Kir2.1 mutation of C149): loss of sensitivity

SMILES: C[C@@H]1C[C@@H]([C@H](O)CC2CC(=O)NC(=O)C2)C(=O)[C@@H](C)C1 [cycloheximide]
activity recovery (Kir2.1Y channel [2]; cycloheximide in FRAC experiments (data not shown)): 40%
